From patent publication US20100197797A1 (priority 2009, published 2010)

Key:
Format in all cases: in vivo, human
fibromyalgia patients = assay: Placebo-controlled trials in fibromyalgia patients (safety); details: for patients with >15 mmHg increase in SBP at the end of the study / patients with DBP increases >10 mmHg at end of study: hypertensive at baseline; for patients with increases in ALT: mild elevations (1-3 times ULN); for patients who became hypertensive at the end of the study (SBP≧140 mmHg or DBP≧90 mmHg): non-hypertensive at baseline; for incidence of suicidal ideation: patients with a history of depression at treatment initiation; for patients who became hypertensive at the end of the study: pre-hypertension at baseline (SBP 120-139 mmHg); for mean weight loss: up to 3 months
Source text: The stated frequencies of adverse reactions represent the proportion of individuals who experienced, at least once, a treatment-emergent adverse reaction of the type listed. A reaction was considered treatment emergent if it occurred for the first time or worsened while receiving therapy following baseline evaluation.

fibromyalgia [1] = assay: Study 1, 6-month fibromyalgia efficacy study
Source text: (§1) Enrolled patients met the American College of Rheumatology (ACR) criteria for fibromyalgia (a history of widespread pain for 3 months and pain present at 11 or more of the 18 specific tender point sites). […] Study 1 was six months in duration and Study 2 was three months in duration.
Patients were enrolled with a minimum mean baseline pain score of ≧50 mm on a 100 mm visual analog scale (VAS) ranging from 0 (“no pain”) to 100 (“worst possible pain”). The mean baseline pain score in this trial was 69.

fibromyalgia [2] = assay: Study 2, 3-month fibromyalgia efficacy study
Source text: as §1
Patients were enrolled with a minimum mean baseline pain score of ≧40 mm on a 100-mm VAS ranging from 0 (“no pain”) to 100 (“worst possible pain”). The mean baseline pain score in this trial was 65.

[3] = Drug interaction studies in healthy adult subjects
Procedure: The drug interaction studies described below were conducted in healthy adult subjects.

humans = assay: Acute overdose in clinical trials; details: up to 1000 mg, alone or in combination with other drugs
Source text: There is limited clinical experience with milnacipran hydrochloride overdose in humans.

[4] = 3-month placebo-controlled trials
[5] = all milnacipran hydrochloride (n = 1557)
[6] = 100 mg and 200 mg daily, 3-month time point

CCN(CC)C(=O)C1(c2ccccc2)CC1CN.Cl (racemic) [milnacipran hydrochloride, (±)-[1R(S),2S(R)]-2-(aminomethyl)-N,N-diethyl-1-phenylcyclopropanecarboxamide hydrochloride]
Adverse reaction incidence: Vomiting (fibromyalgia patients; 200 mg/day (n = 934)): 7%
mean increase in diastolic blood pressure (DBP) (fibromyalgia patients; [4]): up to 3.1 mm Hg
mean increase in systolic blood pressure (SBP) (fibromyalgia patients; [4]): up to 3.1 mm Hg
dose dependence of effect on heart rate (fibromyalgia patients; 100 vs 200 mg/day): did not appear to increase with increasing dose
Adverse reaction incidence: Abdominal pain (fibromyalgia patients; [5]): 3%
Adverse reaction incidence: Anxiety (fibromyalgia patients; [5]): 4%
Adverse reaction incidence: Blood pressure increased (fibromyalgia patients; [5]): 3%
Adverse reaction incidence: Chest discomfort (fibromyalgia patients; [5]): 1%
Adverse reaction incidence: Chest pain (fibromyalgia patients; [5]): 2%
Adverse reaction incidence: Chills (fibromyalgia patients; [5]): 2%
Adverse reaction incidence: Constipation (fibromyalgia patients; [5]): 16%
Adverse reaction incidence: Decreased appetite (fibromyalgia patients; [5]): 2%
Adverse reaction incidence: Dizziness (fibromyalgia patients; [5]): 10%
Adverse reaction incidence: Dry mouth (fibromyalgia patients; [5]): 5%
Adverse reaction incidence: Dyspnea (fibromyalgia patients; [5]): 2%
Adverse reaction incidence: Flushing (fibromyalgia patients; [5]): 3%
Adverse reaction incidence: Headache (fibromyalgia patients; [5]): 18%
Adverse reaction incidence: Heart rate increased (fibromyalgia patients; [5]): 6%
Adverse reaction incidence: Hot flush (fibromyalgia patients; [5]): 12%
Adverse reaction incidence: Hyperhidrosis (fibromyalgia patients; [5]): 9%
Adverse reaction incidence: Hypertension (fibromyalgia patients; [5]): 5%
Adverse reaction incidence: Hypoesthesia (fibromyalgia patients; [5]): 1%
Adverse reaction incidence: Insomnia (fibromyalgia patients; [5]): 12%
Adverse reaction incidence: Migraine (fibromyalgia patients; [5]): 5%
Adverse reaction incidence: Nausea (fibromyalgia patients; [5]): 37%
Adverse reaction incidence: Palpitations (fibromyalgia patients; [5]): 7%
Adverse reaction incidence: Paresthesia (fibromyalgia patients; [5]): 2%
Adverse reaction incidence: Pruritus (fibromyalgia patients; [5]): 2%
Adverse reaction incidence: Rash (fibromyalgia patients; [5]): 3%
Adverse reaction incidence: Tachycardia (fibromyalgia patients; [5]): 2%
Adverse reaction incidence: Tension headache (fibromyalgia patients; [5]): 1%
Adverse reaction incidence: Tremor (fibromyalgia patients; [5]): 2%
Adverse reaction incidence: Upper respiratory tract infection (fibromyalgia patients; [5]): 6%
Adverse reaction incidence: Vision blurred (fibromyalgia patients; [5]): 2%
Adverse reaction incidence: Vomiting (fibromyalgia patients; [5]): 7%
elevated transaminases vs placebo (fibromyalgia patients; clinical trials): more patients treated with milnacipran hydrochloride developed elevated transaminases
risk of mydriasis (fibromyalgia patients; clinical trials): increased risk of mydriasis
incidence of dysuria (fibromyalgia patients; controlled fibromyalgia trials): 1%
incidence of genitourinary adverse reactions in male patients (fibromyalgia patients; each of dysuria, ejaculation disorder, erectile dysfunction, ejaculation failure, libido decreased, prostatitis, scrotal pain, testicular pain, testicular swelling, urinary hesitation, urinary retention, urethral pain, urine flow decreased, rate greater than placebo): at least 2%
increases of bilirubin (fibromyalgia patients; fibromyalgia clinical trials): not clinically significant
cases of ALT>3×ULN associated with bilirubin≧2×ULN (fibromyalgia patients; human, in vivo): No case
most common adverse reactions (incidence≧5% and twice placebo) (fibromyalgia patients; human, in vivo): constipation, hot flush, hyperhidrosis, vomiting, palpitations, heart rate increased, dry mouth, and hypertension
most frequently occurring adverse reaction (fibromyalgia patients; human, in vivo): nausea
patients with >15 mmHg increase in SBP at the end of the study (fibromyalgia patients; 100 mg/day): 7%
patients with DBP increases >10 mmHg at end of study (fibromyalgia patients; 100 mg/day): 8%
patients with >15 mmHg increase in SBP at the end of the study (fibromyalgia patients; 200 mg/day): 2%
patients with DBP increases >10 mmHg at end of study (fibromyalgia patients; 200 mg/day): 6%
patients with increases in ALT (fibromyalgia patients; 100 mg/day): 6%
patients with increases in ALT (fibromyalgia patients; 200 mg/day): 7%
patients who became hypertensive at the end of the study (SBP≧140 mmHg or DBP≧90 mmHg) (fibromyalgia patients; 100 mg/day): 19.5%
patients who became hypertensive at the end of the study (SBP≧140 mmHg or DBP≧90 mmHg) (fibromyalgia patients; 200 mg/day): 16.6%
incidence of suicidal ideation (fibromyalgia patients; 100 mg/day): 0%
incidence of suicidal ideation (fibromyalgia patients; 200 mg/day): 1.3%
patients who became hypertensive at the end of the study (fibromyalgia patients; 100 mg/day): 14%
patients who became hypertensive at the end of the study (fibromyalgia patients; 200 mg/day): 14%
suicides (fibromyalgia patients; short-term or longer-term (up to 1 year) fibromyalgia trials): No suicides occurred
activation of mania or hypomania (fibromyalgia patients; trials excluded current major depressive episode): No activation of mania or hypomania was reported
mean weight loss (fibromyalgia patients; 100 mg/day): approximately 0.8 kg
mean weight loss (fibromyalgia patients; 200 mg/day): approximately 0.8 kg
patients with at least 30% reduction in pain from baseline (VAS) and globally improved (PGIC) vs placebo (fibromyalgia [1]; [6]): More patients
proportion meeting composite response criteria: pain (VAS), physical function (SF-36 PCS), patient global assessment (PGIC), vs placebo (fibromyalgia [1]; Studies 1 and 2): larger proportion
proportion with simultaneous pain reduction of at least 30% (VAS) and PGIC much or very much improved, vs placebo (fibromyalgia [1]; Studies 1 and 2): larger proportion
onset of decrease in pain (fibromyalgia [1]; both studies, some patients globally much or very much improved, stable dose): as early as week 1
benefit of 200 mg/day vs 100 mg/day (fibromyalgia [1]; in vivo): did not confer greater benefit
patients with at least 30% reduction in pain from baseline (VAS) and globally improved (PGIC) vs placebo (fibromyalgia [2]; [6]): More patients
benefit of 200 mg/day vs 100 mg/day (fibromyalgia [2]; in vivo): did not confer greater benefit
pharmacokinetic interaction with digoxin ([3]; 200 mg/day and digoxin 0.2 mg/day Lanoxicaps, multiple-dose): no pharmacokinetic interaction
change in pharmacokinetics of carbamazepine or its epoxide metabolite ([3]; co-administration with milnacipran hydrochloride): No changes were observed
adverse events after switching from clomipramine ([3]; human, in vivo): an increase in euphoria and postural hypotension
hemodynamic adverse effects in combination with digoxin ([3]; intravenously administered digoxin (1 mg)): Postural hypotension and tachycardia have been reported
effect on pharmacokinetics of lithium ([3]; multiple doses, 100 mg/day): did not affect
pharmacokinetic interaction with lorazepam ([3]; single dose 50 mg and lorazepam 1.5 mg): no pharmacokinetic interaction
outcome of acute ingestions (humans): none being fatal
